Test results taken from patent publication US4769389A, “Oxygenated-alkyl derivatives of glutamic and aspartic acids with antagonistic activity to bio-active polypeptides and a method for their preparation” (priority 1985, dated 1988).
≈ marks a conversion by molar mass, not a printed value. Like-named read-outs stand apart in the source and are kept apart here.

Assays:
[1] = Tolerability in parenteral administration; details: i.v. sodium salt in water up to 1.5 percent, 10 ml/kg (150 mg/kg)
[2] = in vivo, sc
normal pancreatic cells = experiment: Action on growth rate of normal pancreas induced by CCK-8 in hamsters; format: in vivo; details: for effect on normal pancreatic cells: in words
From the text: (§1) Male hamsters were innoculated in the cheek pouch with a suspension of 1×10^5 tumour cells of a pancreatic adenocarcinoma.
(§2) Fifteen days after this treatment the animals were killed and the normal pancreas and the pancreatic tumours initiated in the cheek pouch were removed and weighed.
(§3) The DNA was extracted and measured by conventional methods.
(§4) The results obtained are given in Table 11 in which they are expressed as average values±S.E.

colon of rabbits = experiment: Antispastic activity in the colon of rabbits stimulated with CCK-8; format: in vivo, rabbit; parameters: Antispastic activity in colon, EXPERIMENT 1 / Antispastic activity in colon, EXPERIMENT 2: unit not given here; details: CCK 100 ng/kg
Protocol: The abdomen of anaesthetised rabbit is cut open to display the tranverse colon. A small balloon full of water is inserted at an established point and connected to a pressure transducer by means of a polyethylene cannula filled with H2 O.
The optimum sensitivity being fixed in relation to the physiological contractions, the products were administered through the femeral vein. Contractions were induced by the administration of 100 ng/kg of CCK.

guinea pig gall bladders = experiment: Anti-CCK-8 activity on guinea-pig gallbladders in situ (in vivo); details: Cavia porcellus, iv; CCK-8 10 ng/kg i.v.; compound i.v.; read-out: ID50, anti-CCK-8 activity in situ
Protocol: In order to confirm the evidence of the studies in vitro, several of the more interesting compounds were tested in vivo with the use of guinea-pig gallbladders in situ.
The method used was that described by Ljungberg (Svensk. Farm. Tidskr. 69, 351-354, 1964).
Guinea-pigs having a weight of about 400 g anaesthetised with urethane were used; the substances being tested were administered intravenously (i.v.) into the jugular vein.
The responses of the gallbladder to the substances being tested were detected by means of a force transducer and recorded by means of a microdynamometer. 10 ng/kg of CCK 8 were chosen as the optimum contracting dose. The antagonistic compounds tested were administered in increasing doses so as to enable the calculation of an ID50 value, that is the dose (in mg/kg i.v.) having a 50% inhibiting effect against contractions induced by 10 ng/kg i.v. of CCK-8.

guinea-pig gallbladder = experiment: Anti-CCK activity on guinea-pig gallbladders in vitro (contraction by CCK-8); details: Cavia porcellus; CCK-8 10 ng/ml; in vitro
Protocol: ANTI-CCK ACTIVITY ON GUINEA-PIG GALLBLADDERS IN VITRO A longitudinal strip of guinea-pig gallbladder is placed in a bath for isolated organs in Krebs at a temperature of 32° C. and oxygenated continuously with an oxygen-CO2 mixture (95-[…]). The isometric contractions were detected by means of a force transducer and recorded. […] The results obtained are shown in Table 3 which gives the compounds tested and the IC50 values found which were calculated by the method of regression in a test of at least three experiments for each compound studied.

[3] = tested on: pancreatic adenocarcinoma; experiment: Inhibiting action on rate of growth of a pancreatic adenocarcinoma induced by CCK-8 in hamsters; format: in vivo; details: for effect on growth of a pancreatic adenocarcinoma: in words
From the text: as §1, §2, §3, §4

[4] = tested on: pancreatitis in rats induced experimentally by taurocholate; experiment: Pancreatitis induced by sodium taurocolate in rats; format: in vivo; details: for ED50: Rattus norvegicus, ip, taurocholate, rats
Protocol: The products under examination were administered intraperitoneally (i.p.) 30 minutes before the operation and 3 hours after the operation. Six hours after the laparatomy the blood was removed from the retro-orbitory plexus after anaesthesia with ether, the animals were killed and the pancreas was removed and weighed. The activity of the serum amylase was determined by the method described above.

[5] = Food consumption in rats treated daily by mouth for three weeks; format: in vivo
Protocol: (§5) The following tables give the average values of the food consumption and the average weight of each group of animals calculated weekly as well as the Student t value calculated between the various groups treated and the group of control animals. […] Each group received the drug (compound 1) in the doses indicated for three weeks daily by mouth. The drug in the form of the sodium salt was dissolved in water and administered in a volume of 10 ml of H2 O/kg while the control group received an equal volume of the solvent alone.

[6] = Body weight of rats treated daily by mouth for three weeks; format: in vivo
Protocol: as §5

digestive tract = experiment: Antispastic activity, vegetable carbon test (speed of transit through stomach and intestine) in mice; format: in vivo; details: Mus musculus, ip, read-out: A[…] ED50 (dose which reduces the intestinal transit time of the carbon by 50%), intraperitoneally
From the text: The anti-spastic activity which the present compounds exert on the whole of the digestive tract is also considerable. Measured in mice with the vegetable carbon test (speed of transit through the stomach and intestine) this activity is illustrated in the following table: […]

[7] = tested on: pancreatitis in mice induced experimentally by cerulein; experiment: Pancreatitis induced by cerulein in mice; format: in vivo; details: for ED50: Mus musculus, ip, cerulein, mice
Protocol: Adult male mice received six injections of cerulein (Takus) (50 mcg/kg) each hour for six hours.
The compound was administered 30 minutes before each administration of cerulein. Nine hours after the beginning of the treatment, the blood was taken from the rectro-orbitory plexus after anaesthesia with ether, the animals were killed and the pancreas removed and weighed.

[8] = compound 1 4 mg/kg + CCK-8 8 mcg/kg
[9] = CCK-8 8 mcg/kg three times a day

Compound: CCCCCN(CCCOC)C(=O)C(CCC(=O)O)NC(=O)c1ccc(Cl)c(Cl)c1 (racemic) [Compound 1]
- haemolysis [1]: without causing haemolysis
- tissue damage [2]: does not moreover give rise to tissue damage
- PANCREATIC DNA (normal pancreatic cells; 4 mg/kg i.p. three times a day): 0.78 ± 0.03 mg
- WEIGHT OF THE PANCREAS (normal pancreatic cells; 4 mg/kg i.p. three times a day): 351.2 ± 17.2 mg
- PANCREATIC DNA (normal pancreatic cells; [8]): 0.83 ± 0.06 mg
- WEIGHT OF THE PANCREAS (normal pancreatic cells; [8]): 370.2 ± 12.7 mg
- effect on normal pancreatic cells (normal pancreatic cells): atagonises both these actions of CCK-8 to a highly significant extent
- Antispastic activity in colon, EXPERIMENT 1 (colon of rabbits; 0.3 mg/kg i.v.): -20.8
- Antispastic activity in colon, EXPERIMENT 2 (colon of rabbits; 0.3 mg/kg i.v.): -34.1
- Antispastic activity in colon, EXPERIMENT 1 (colon of rabbits; 1 mg/kg i.v.): -48.9
- Antispastic activity in colon, EXPERIMENT 2 (colon of rabbits; 1 mg/kg i.v.): -55.6
- Antispastic activity in colon, EXPERIMENT 1 (colon of rabbits; 3 mg/kg i.v.): -100.0
- Antispastic activity in colon, EXPERIMENT 2 (colon of rabbits; 3 mg/kg i.v.): -87.8
- ED50 (colon of rabbits; Oryctolagus cuniculus, iv): 1.24 mg/kg
- ED50 (guinea pig gall bladders): 0.11 mg/kg
- IC50 (guinea-pig gallbladder): 0.1 µg/mL (≈ 0.217 µM)
- TUMORAL DNA ([3]; 4 mg/kg i.p. three times a day): 0.42
- WEIGHT OF THE PANCREATIC CARCINOMA ([3]; 4 mg/kg i.p. three times a day): 105.0 ± 4.1 mg
- TUMORAL DNA [3, 8]: 0.44
- WEIGHT OF THE PANCREATIC CARCINOMA [3, 8]: 108.8 ± 5.4 mg
- effect on growth of a pancreatic adenocarcinoma [3]: atagonises both these actions of CCK-8 to a highly significant extent
- AMYLASE IN THE SERUM ([4]; 5 mg/kg i.p. + taurocholate): 10.4 U/ml
- INHIBITION OF AMYLASE INCREASE ([4]; 5 mg/kg i.p. + taurocholate): 47.0%
- INHIBITION OF WEIGHT INCREASE ([4]; 5 mg/kg i.p. + taurocholate): 46.1%
- AMYLASE IN THE SERUM ([4]; 10 mg/kg i.p. + taurocholate): 9.8 U/ml
- INHIBITION OF AMYLASE INCREASE ([4]; 10 mg/kg i.p. + taurocholate): 64.7%
- INHIBITION OF WEIGHT INCREASE ([4]; 10 mg/kg i.p. + taurocholate): 84.6%
- AMYLASE IN THE SERUM ([4]; 20 mg/kg i.p. + taurocholate): 7.8 U/ml
- INHIBITION OF AMYLASE INCREASE ([4]; 20 mg/kg i.p. + taurocholate): 123.5%
- INHIBITION OF WEIGHT INCREASE ([4]; 20 mg/kg i.p. + taurocholate): 107.7%
- ED50 ([4]; read-out: ED50, inhibition of amylase increase): 7.3 mg/kg
- ED50 ([4]; read-out: ED50, inhibition of weight increase): 6.9 mg/kg
- increase in the food consumption compared with the controls ([5]; 0.625 mg/kg daily): about 20%
- Food consumption ([5]; 0.625 mg/kg os, 1st week): 187.1 ± 6.3 g/week
- Food consumption ([5]; 0.625 mg/kg os, 2nd week): 220 ± 3.9 g/week
- Food consumption ([5]; 0.625 mg/kg os, 3rd week): 242.5 ± 3.3 g/week
- Food consumption ([5]; 1.25 mg/kg os, 1st week): 205 ± 4.6 g/week
- Food consumption ([5]; 1.25 mg/kg os, 2nd week): 217.5 ± 3.8 g/week
- Food consumption ([5]; 1.25 mg/kg os, 3rd week): 253.5 ± 2.4 g/week
- Food consumption ([5]; 2.5 mg/kg os, 1st week): 209.2 ± 3.3 g/week
- Food consumption ([5]; 2.5 mg/kg os, 2nd week): 222.2 ± 2.6 g/week
- Food consumption ([5]; 2.5 mg/kg os, 3rd week): 270.7 ± 4.5 g/week
- increase in the food consumption compared with the controls ([5]; other doses tested (1.25, 2.5 mg/kg)): about 30%
- body weight ([6]; 0.625 mg/kg os, 1st week): 216.9 ± 3.8 g
- body weight ([6]; 0.625 mg/kg os, 2nd week): 267.5 ± 3.9 g
- body weight ([6]; 0.625 mg/kg os, 3rd week): 324 ± 3.6 g
- body weight ([6]; 0.625 mg/kg os, time 0): 169.3 ± 1.9 g
- body weight ([6]; 1.25 mg/kg os, 1st week): 242.7 ± 4.9 g
- body weight ([6]; 1.25 mg/kg os, 2nd week): 318.3 ± 4.4 g
- body weight ([6]; 1.25 mg/kg os, 3rd week): 371 ± 5.6 g
- body weight ([6]; 1.25 mg/kg os, time 0): 168.3 ± 1.1 g
- body weight ([6]; 2.5 mg/kg os, 1st week): 241.6 ± 3.7 g
- body weight ([6]; 2.5 mg/kg os, 2nd week): 325.2 ± 5.5 g
- body weight ([6]; 2.5 mg/kg os, 3rd week): 374.9 ± 5.1 g
- body weight ([6]; 2.5 mg/kg os, time 0): 165.8 ± 1.3 g
- weight increase compared with control animals ([6]; all treated groups, from the first week, in words): significantly higher weight increase than the control animals
- ED50 (digestive tract): 12.8 mg/kg
- AMYLASE IN THE SERUM ([7]; 5 mg/kg ip + cerulein): 29.4 U/ml
- INHIBITION OF WEIGHT INCREASE ([7]; 5 mg/kg ip + cerulein): 76.9%
- INHIBITION OF WEIGHT INCREASE (pancreas) ([7]; 5 mg/kg ip + cerulein): 42.8%
- AMYLASE IN THE SERUM ([7]; 7.5 mg/kg ip + cerulein): 25.6 U/ml
- INHIBITION OF WEIGHT INCREASE ([7]; 7.5 mg/kg ip + cerulein): 81.6%
- INHIBITION OF WEIGHT INCREASE (pancreas) ([7]; 7.5 mg/kg ip + cerulein): 71.4%
- AMYLASE IN THE SERUM ([7]; 10 mg/kg ip + cerulein): 13.2 U/ml
- INHIBITION OF WEIGHT INCREASE ([7]; 10 mg/kg ip + cerulein): 97.1%
- INHIBITION OF WEIGHT INCREASE (pancreas) ([7]; 10 mg/kg ip + cerulein): 90.5%
- ED50 ([7]; read-out: ED50 (inhibition of weight increase)): 4.2 mg/kg
- ED50 ([7]; read-out: ED50, inhibition of weight increase of the pancreas): 5.5 mg/kg

Compound: CCK-8: biologically active component of the hormone cholecystokinin [reference compound]
- PANCREATIC DNA (normal pancreatic cells; [9]): 1.5 ± 0.06 mg
- WEIGHT OF THE PANCREAS (normal pancreatic cells; [9]): 634.8 ± 20.8 mg
- effect on normal pancreatic cells (normal pancreatic cells): has a trophic action on normal pancreatic cells
- TUMORAL DNA [3, 9]: 0.7
- WEIGHT OF THE PANCREATIC CARCINOMA [3, 9]: 163.1 ± 4.7 mg
- effect on growth of a pancreatic adenocarcinoma [3]: stimulates the growth of a pancreatic adenocacinoma
